The text below walks through data of PMC6257627, “Target Validation and Identification of Novel Boronate Inhibitors of the Plasmodium falciparum Proteasome” (Journal of Medicinal Chemistry, 2018).

Test [1] concerns P. falciparum 3D7 parasites. The test can be described thus: Standard 72 h antiplasmodial viability assay, 3D7. Type of test: cell-based, Plasmodium falciparum. Conditions: for Pf3D7 LD50 (72 h): sorbitol-treated ring stage, viability in next cycle (~72 h), mean ± SEM, n=3; for Pf3D7 LD50 (72-h): supplement CSV. Here is the method: P. falciparum parasites used in this study were propagated in O+ human erythrocytes (Australian Red Cross Blood Service) in RPMI-1640, supplemented with GlutaMAX, 25 mM HEPES (Thermo Fisher Scientific), 5% (v/v) human serum (Australian Red Cross Blood Service), 0.25% (w/v) AlbuMAX II (Thermo Fisher Scientific), 10 μM D-glucose, 22 μg/mL gentamycin (Sigma-Aldrich), and 0.5 mM hypoxanthine (Sigma-Aldrich) and incubated at 37 °C in an atmosphere of 1% O2, 5% CO2, and 94% N2. Cultures were monitored by Giemsa staining of methanol-fixed blood smears. Culture medium was replaced at least every 48 h, and parasitemia was maintained below 10% to ensure health of cultures. The GFP-DD reporter strain was kindly provided by Dr. Paul Gilson, Dr. Brendan Crabb, and Dr. Mauro F. Azevedo (Burnet Institute).
(§1) For standard assays of antiplasmodial activity, sorbitol-treated ring stage parasites were incubated with the drugs for 72 h and viability was assessed in the second cycle.[12] Drug pulse assays were performed as described previously.[47] For short pulse assays, tightly synchronized early ring stage parasites (1–3 h after invasion) at 0.2% hematocrit and 1–2% parasitemia were subjected to 3 h drug pulse at 37 °C and returned to culture until parasites reached trophozoite stage of the following cycle. Cells were then stained with 2 μM Syto-61 (Thermo Fisher Scientific), and their fluorescence was measured by flow cytometry (FACSCanto II cytometer; Becton Dickinson). Data were gated and analyzed using FCS Express software (version 3) to determine parasitemia of each sample. Viability represents the parasitemia normalized to untreated and “kill treated” controls, where “kill treated” refers to samples treated with 2 μM DHA for 48–72 h. Interactions between DHA and MPI-1 or MPI-4 against the K13 mutant (DHA resistant) Cam3.II P. falciparum strain, exposed to a 3 h pulsed treatment, were determined at 4 h after invasion as described previously.[12]

The subject of test [2] is HCT116 cells. In words: HCT116 cellular toxicity (CellTiter-Glo, 72 h). Conditions: for HCT116 LD50 (72 h): 72 h incubation, mean ± SEM or half range, 2–4 experiments; for HCT116 LD50 (72-h): supplement CSV. Type of test: cell-based, human. Here is the method: HCT-116 and HepG2 cells were obtained from the American Type Culture Collection and maintained as recommended by the supplier. Cells were cultured in the ATCC-formulated McCoy’s 5A medium or DMEM (Life Technologies, CA), supplemented with fetal bovine serum to a final concentration of 9–10%, and incubated at 37 °C in an atmosphere of 95% air and 5% CO2. Cellular toxicity assays were performed using Promega’s CellTiter-Glo assay system. Varying concentrations of the test compounds in 5% DMSO/95% PBS were dispensed into a 384-well plate and cells added to each well. The plates were incubated at 37 °C for 72 h, and the CellTiter-Glo assay to assess cell viability was performed as described by the manufacturer (Promega).
For human cell line activity assays, cellular toxicity assays were performed as described previously.[23],[48]
(In general: ATP-based viability assays read luminescence as a measure of living cells.)

Test [3] concerns HepG2 cells. The test can be described thus: HepG2 cellular toxicity (CellTiter-Glo, 72 h). Conditions: for HepG2 LD50 (72 h): 72 h incubation, mean ± SEM or half range, 2–4 experiments; for HepG2 LD50( 72-h): supplement CSV. The test is classed as cell-based, human.
In test [4] the test system is P. falciparum Cam3.II^R539T. The test can be described thus: 3 h pulsed exposure viability assay, K13 mutant early rings. Type of test: cell-based, Plasmodium falciparum. Conditions: for Cam3.II^R539T LD50 (3 h): early ring (1–3 h p.i.), 3 h pulse, viability in next cycle, mean ± SEM, n=3; for Cam3.IIR539T LD50 (3-h): supplement CSV. How it is done: as §1
Test [5] has as its system P. falciparum Cam3.II^Rev. The test can be described thus: 3 h pulsed exposure viability assay, K13 wild-type revertant early rings. Type of test: cell-based, Plasmodium falciparum. Conditions: for Cam3.II^Rev LD50 (3 h): early ring (1–3 h p.i.), 3 h pulse, viability in next cycle, mean ± SEM, n=3; for Cam3.IIRev LD50 (3-h): supplement CSV. How it is done:
as §1

For test [6], the system named is bortezomib-resistant 3D7 B1 line (clone B1a). In words: 72 h viability assay, bortezomib-resistant B1 line / clone B1a. Conditions: for cross-resistance of the bortezomib-resistant parasite line (B1): growth inhibition, versus 3D7; for bortezomib-resistant 3D7 B1 line LD50 (72 h): ring stage, mean ± SEM, n=3; for Bortezomib-resistant3D7 B1 LD50 (72-h): supplement CSV. Type of test: cell-based, Plasmodium falciparum. How it is done:
as §1
Prior to selection, an aliquot of the parental line was stocked as a reference for subsequent whole genome sequencing analysis. Several independent clones of P. falciparum 3D7 parasite line were cultured in Petri dishes exposed to increasing drug pressure for ∼30 weeks. Parasites were cloned by limiting dilution. For parasite extraction and genomic DNA isolation, cultures were scaled up to at least 4–5% parasitaemia, lysed in saponin, and genomic DNA was isolated using ISOLATE II Genomic DNA kit (Bioline). DNA libraries for each gDNA sample were prepared for sequencing using the Nextera XT kit as described previously.[50] Libraries were clustered and run on an Illumina HiSeq 2500 using the RapidRun mode, sequencing 100 base pairs in depth on either end. Paired-end reads were either aligned to the P. falciparum 3D7 reference genome (PlasmoDB version 13.0).

Test [7] deals with Pf20S proteasome β1, β2, β5 subunits. The test is classed as biochemical, P. falciparum. Conditions: compounds 1 h, purified Pf20S or infected erythrocytes.
Test [8] has as its system human constitutive proteasome and immunoproteasome catalytic subunits. The test can be described thus: BMV037 active site probe competition, purified human 20S proteasomes. Conditions: for subunit specificity by BMV037 probe labeling, human constitutive proteasome and immunoproteasome: compounds 1 h, probe 2 h. Type of test: biochemical.
Test [9] concerns Pf20S proteasome subunits of bortezomib-resistant parasites. In words: BMV037 active site probe competition, bortezomib-resistant parasites. The test is classed as biochemical, P. falciparum. Conditions: compounds 1 h. How it is done: Figure 3 Active site probe analysis of the proteasome subunit specificity of the selected compounds in 3D7 parent and bortezomib-resistant parasites. Purified Pf20S proteasome from wild-type 3D7 (A) and bortezomib-resistant (C) parasites or wild-type 3D7 (B) and bortezomib-resistant (D) trophozoite-infected erythrocytes were treated with compounds for 1 h, and activity-based probe (BMV037) labeling was performed (postlysis for the trophozoite samples). Fluorescent gel scans reveal subunits that remain active after treatment.
P. falciparum culture, purified Pf20S proteasomes, human constitutive proteasomes, or immunoproteasomes (Boston Biochem) were incubated with test compounds at 37 °C for 1 h. Treated parasite lysates (10 μg), Pf20S proteasomes (80 nM), human constitutive proteasomes (20 nM), or immuno-20S proteasomes (20 nM) were labeled with BMV037 (10 μM) at 37 °C for 2 h. Samples were mixed with SDS loading buffer and heated at 95 °C for 5 min. Samples for P. falciparum and human immuno-20S were run on 4–12% Bis-Tris acrylamide gels using MES SDS running buffer (Thermo Fisher Scientific). Human constitutive 20S samples were run on a 10% Bis-Tris acrylamide gel using MOPS SDS running buffer (Thermo Fisher Scientific). Gels were imaged at the Cy5 channel on a Gel Doc XR+ Documentation System (Bio-Rad) or an Amersham Typhoon Trio imager (GE Healthcare Life Sciences).

In test [10] the target is Plasmodium falciparum 20S proteasome β1 (Plasmodium falciparum, UniProt Q8I0U7+Q8I6T3). Type of test: biochemical.
Plasmodium falciparum 20S proteasome β1, sequence (Q9UL46 2-239): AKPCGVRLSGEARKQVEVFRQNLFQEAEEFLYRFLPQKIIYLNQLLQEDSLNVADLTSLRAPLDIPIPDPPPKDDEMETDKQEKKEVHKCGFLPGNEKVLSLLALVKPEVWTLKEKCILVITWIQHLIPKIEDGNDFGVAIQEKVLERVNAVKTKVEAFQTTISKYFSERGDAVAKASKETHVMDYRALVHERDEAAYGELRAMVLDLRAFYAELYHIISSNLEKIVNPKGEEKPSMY
Plasmodium falciparum 20S proteasome β1, sequence (Q8I0U7 entry or part of it): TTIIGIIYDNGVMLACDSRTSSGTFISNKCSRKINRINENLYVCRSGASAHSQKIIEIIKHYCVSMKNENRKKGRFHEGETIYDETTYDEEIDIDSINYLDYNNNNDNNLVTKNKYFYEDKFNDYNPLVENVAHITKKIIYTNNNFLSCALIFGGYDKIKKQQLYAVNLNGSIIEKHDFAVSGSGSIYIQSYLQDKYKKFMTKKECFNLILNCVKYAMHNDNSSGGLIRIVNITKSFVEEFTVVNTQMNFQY
Plasmodium falciparum 20S proteasome β1, sequence (Q8I6T3 entry or part of it): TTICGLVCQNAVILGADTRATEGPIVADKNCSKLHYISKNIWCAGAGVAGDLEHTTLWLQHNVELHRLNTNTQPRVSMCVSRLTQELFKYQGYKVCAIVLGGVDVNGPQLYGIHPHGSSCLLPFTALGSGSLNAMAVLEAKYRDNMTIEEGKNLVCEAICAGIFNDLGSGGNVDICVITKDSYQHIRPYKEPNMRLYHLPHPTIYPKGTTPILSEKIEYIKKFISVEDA
Plasmodium falciparum 20S proteasome β1, sequence (Q06323 whole entry, further chain): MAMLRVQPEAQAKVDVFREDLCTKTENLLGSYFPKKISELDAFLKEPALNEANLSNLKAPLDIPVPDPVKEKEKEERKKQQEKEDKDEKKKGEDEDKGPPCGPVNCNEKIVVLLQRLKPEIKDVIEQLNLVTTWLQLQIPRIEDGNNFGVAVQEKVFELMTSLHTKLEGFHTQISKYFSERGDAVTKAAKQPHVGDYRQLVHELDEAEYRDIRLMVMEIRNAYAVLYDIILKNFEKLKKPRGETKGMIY
In test [11] the target is Plasmodium falciparum 20S proteasome β2 (Plasmodium falciparum, UniProt Q8I261+Q8I6T3). Type of test: biochemical.
Plasmodium falciparum 20S proteasome β2, sequence (Q8I261 entry or part of it): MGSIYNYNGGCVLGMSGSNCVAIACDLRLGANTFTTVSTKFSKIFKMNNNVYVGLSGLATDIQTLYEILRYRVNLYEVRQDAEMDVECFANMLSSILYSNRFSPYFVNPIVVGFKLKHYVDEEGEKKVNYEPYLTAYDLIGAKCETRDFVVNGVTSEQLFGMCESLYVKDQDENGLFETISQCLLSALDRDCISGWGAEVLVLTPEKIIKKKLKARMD
Plasmodium falciparum 20S proteasome β2, sequence (Q06323 whole entry, further chain): as the sequence (Q06323 whole entry, further chain) above
Plasmodium falciparum 20S proteasome β2, sequence (Q8I6T3 entry or part of it): as the sequence (Q8I6T3 entry or part of it) above
Plasmodium falciparum 20S proteasome β2, sequence (Q9UL46 2-239, further chain): as the sequence (Q9UL46 2-239) above
For test [12], the target named is Plasmodium falciparum 20S proteasome β5 (Plasmodium falciparum, UniProt A0A5K1K7U1+Q8IJT1). In words: Pf20S proteasome fluorogenic assay, chymotrypsin-like activity (Ac-WLA-AMC). Type of test: biochemical. Conditions: 0.8 μM carfilzomib.
Plasmodium falciparum 20S proteasome β5, sequence (Q9UL46 2-239): as above
Plasmodium falciparum 20S proteasome β5, sequence (A0A5K1K7U1 entry or part of it): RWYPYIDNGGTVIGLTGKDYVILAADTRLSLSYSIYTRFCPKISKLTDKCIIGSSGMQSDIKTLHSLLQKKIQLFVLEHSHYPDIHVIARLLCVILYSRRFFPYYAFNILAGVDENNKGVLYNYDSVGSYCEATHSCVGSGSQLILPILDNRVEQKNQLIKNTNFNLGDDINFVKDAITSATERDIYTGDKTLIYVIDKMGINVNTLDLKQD
Plasmodium falciparum 20S proteasome β5, sequence (Q06323 whole entry, further chain): as the sequence (Q06323 whole entry, further chain) above
Plasmodium falciparum 20S proteasome β5, sequence (Q8IJT1 entry or part of it): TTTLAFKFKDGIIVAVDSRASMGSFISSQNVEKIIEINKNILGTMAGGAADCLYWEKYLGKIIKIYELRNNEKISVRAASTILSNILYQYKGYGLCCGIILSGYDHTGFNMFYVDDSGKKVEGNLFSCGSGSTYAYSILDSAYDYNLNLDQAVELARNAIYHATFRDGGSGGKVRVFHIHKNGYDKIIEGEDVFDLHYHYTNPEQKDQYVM
The subject of test [13] is Pf20S proteasome. In words: Validation of resynthesized Ac-P3-P2-P1-AMC substrates, Pf20S. The test is classed as biochemical, P. falciparum. Conditions: 10 μM. Here is the method:
(§2) AMC (10 μM) was used as the fluorescence standard. Pf20S reaction condition: Pf20S (1 nM), human PA28 αβ (24 nM), in 50 mM Tris, pH 7.5, 5 mM MgCl2, 1 mM DTT, 0.01% BSA. Human 20S reaction condition: 0.25 nM human constitutive proteasome or immunoproteasome (Boston Biochem), PA28 αβ (24 nM) in 20 mM HEPES, pH 7.4, 0.5 mM EDTA, 0.01% BSA. The assays were read in kinetic mode at 37 °C using a BMG PHERAstar plate reader, and the rate data were normalized to activity obtained using the Ac-WLR-AMC substrate (=1000 units). For validation of substrate preferences, relevant Ac-P3-P2-P1-AMC substrates were resynthesized by CPC Scientific, CA, USA, and assayed for activity against human and P. falciparum 20S proteasomes in 96-well plates (80 μL reaction, 10 μM substrate) under the same reaction condition.

For test [14], the target named is T1, human proteasome β2 (Homo sapiens, UniProt P49720+Q99436).
T1 construct: purchased Boston Biochem
In words: Validation of resynthesized Ac-P3-P2-P1-AMC substrates, human proteasome. Conditions: 10 μM. The test is classed as biochemical. Here is the method:
as §2

*: point of attachment. AMC = Cc1cc(=O)oc2cc(N*)ccc12

For the compound `CC(=O)N1CCC[C@H]1C(=O)N[C@@H](C)C(=O)N[C@@H](CC(C)C)B(O)O` [MPI-2], in test [1], the “Pf3D7 LD50 (72 h)” value was 0.16 ± 0.02 µM and the “Pf3D7 LD50 (72-h)” value is listed as 0.16 ± 0.02 µM. Besides, in test [2], the “HCT116 LD50 (72 h)” value amounted to 1.3 ± 0.3 µM and the “HCT116 LD50 (72-h)” value was 1.3 ± 0.3 µM. Moreover, in test [3], the “HepG2 LD50 (72 h)” value came out at 2.4 ± 0.73 µM and the “HepG2 LD50( 72-h)” value is on record as 2.4 ± 0.73 µM. In [4], the “Cam3.II^R539T LD50 (3 h)” value stood at 1.5 ± 0.2 µM and the “Cam3.IIR539T LD50 (3-h)” value came to 1.5 ± 0.2 µM. In addition, in [5], the “Cam3.II^Rev LD50 (3 h)” value came out at 1.8 ± 0.2 µM and the “Cam3.IIRev LD50 (3-h)” value is 1.8 ± 0.2 µM. For the same compound, in [6], the “cross-resistance of the bortezomib-resistant parasite line (B1)” value is listed as “very strong cross-resistance”, the “bortezomib-resistant 3D7 B1 line LD50 (72 h)” value was above 2 µM and the “Bortezomib-resistant3D7 B1 LD50 (72-h)” value was above 2 µM. In test [7], the “subunit specificity by BMV037 probe labeling, wild-type 3D7” value is given as “preferentially inhibited binding of the probe to the β5 subunit”. The “subunit specificity by BMV037 probe labeling, human constitutive proteasome and immunoproteasome” value in test [8] is “preferentially inhibited β1c and β5i”. The “BMV037 labeling of the β5 active site in bortezomib-resistant parasites” value in test [9] was “no longer able to prevent BMV037 labeling of the β5 active site”.
For `Cc1ccc(S(=O)(=O)N[C@@H](CC(=O)NCC(C)(C)C)C(=O)N[C@@H](Cc2ccccc2)C(=O)N[C@@H](CC(C)C)B(O)O)cc1` [MPI-3], the IC50 in test [1] (Plasmodium falciparum, 3D7, dose–response profiles, n = 3, read-out: 50% viability inhibitory concentration against 3D7 parasites) is around 60 nM. Moreover, in [1], the “Pf3D7 LD50 (72 h)” value is 0.065 ± 0.004 µM and the “Pf3D7 LD50 (72-h)” value is 0.065 ± 0.004 µM. In test [2], the “HCT116 LD50 (72 h)” value came to 0.027 ± 0.002 µM and the “HCT116 LD50 (72-h)” value was 0.027 ± 0.002 µM. Further, in test [3], the “HepG2 LD50 (72 h)” value is 0.26 ± 0.06 µM and the “HepG2 LD50( 72-h)” value is reported as 0.26 ± 0.06 µM. In test [4], the “Cam3.II^R539T LD50 (3 h)” value amounted to 0.19 ± 0.03 µM and the “Cam3.IIR539T LD50 (3-h)” value turned out to be 0.19 ± 0.03 µM. Moreover, in test [5], the “Cam3.II^Rev LD50 (3 h)” value was determined as 0.21 ± 0.03 µM and the “Cam3.IIRev LD50 (3-h)” value was determined as 0.21 ± 0.03 µM. In addition, in test [6], the “cross-resistance of the bortezomib-resistant parasite line (B1)” value was “retained sensitivity”, the “bortezomib-resistant 3D7 B1 line LD50 (72 h)” value turned out to be 0.054 ± 0.007 µM and the “Bortezomib-resistant3D7 B1 LD50 (72-h)” value was 0.054 ± 0.007 µM. Besides, the “subunit specificity by BMV037 probe labeling, wild-type 3D7” value in test [7] was “inhibited both β2 and β5 activities”. Besides, the “BMV037 labeling of the human β1 and β5 subunits after treatment” value in [8] (1 μM, especially constitutive proteasome) is “still evident”. Also, the “subunit specificity by BMV037 probe labeling, human constitutive proteasome and immunoproteasome” value in test [8] was “preferential inhibition of the β1 and β5 subunits”. The “BMV037 competition profile in bortezomib-resistant parasites” value in [9] was “very similar in the bortezomib-resistant and wild-type parasites”.
Take `CC(C)C[C@H](NC(=O)[C@H](CCc1ccccc1)NC(=O)CN1CCOCC1)C(=O)N[C@@H](Cc1ccccc1)C(=O)N[C@@H](CC(C)C)C(=O)[C@@]1(C)CO1` [carfilzomib]: the “inhibitory effect against Pf20S proteasome β1 activity” value in test [10] is on record as “only weak inhibitory effect”. Also, the “Pf20S β2 activity with carfilzomib” value in [11] is on record as “completely abrogated”. Besides, in test [12], the “Pf20S β5 activity with carfilzomib” value was “completely abrogated”.
Turning to Ac-Arg-Gln-Arg-{AMC}, the “activity as substrate for Pf20S” value in test [13] is “inactive”. For the same compound, the “activity as substrate for human proteasome β2” value in [14] is on record as “good human proteasome β2 substrate”.
Consider Ac-Lys-Trp-His-{AMC}, for which, in test [13], the “activity as substrate for Pf20S” value was “both active and selective for Pf20S”.
As to Ac-Trp-Trp-Lys-{AMC}, in test [13], the “activity as substrate for Pf20S” value was “both active and selective for Pf20S”.
